These results are taken from patent US20130303509A1, “NAMPT INHIBITORS” (AbbVie Inc., priority 2012, published 2013).

The experiment has as its system PC3 cells. Description: NAMPT Cell Proliferation Assay. It is filed as cell-based. The settings on record: Homo sapiens, PC-3, 120 h, 5 days incubation, cell viability by Cell Titer Glo. In a few lines:
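Five-day CellTiter-Glo viability readout in PC3 cells grown in RPMI/10% heat-inactivated FBS. Compounds added after overnight attachment as a 10-fold dilution series, […]. Percent inhibition fitted to sigmoidal dose-response to derive IC50.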

By IC50 is commonly meant the point on the concentration scale where inhibition reaches its midpoint. A high value points to lower potency. Turning to `CC(C)C(C)C(=O)N1CCC(c2ccc(NC(=O)C3CN(c4cccnc4)C3)cc2)CC1` (stereo not shown) [Example 139, N-{4-[1-(2,3-dimethylbutanoyl)piperidin-4-yl]phenyl}-1-(pyridin-3-yl)azetidine-3-carboxamide], the IC50 amounted to 0.18 nM.

Molecule `CC(C)(C)CC(=O)N1CCC(c2ccc(NC(=O)C3CN(c4ccnnc4)C3)cc2)CC1` [Example 140, N-{4-[1-(3,3-dimethylbutanoyl)piperidin-4-yl]phenyl}-1-(pyridazin-4-yl)azetidine-3-carboxamide] gave an IC50 of 3.54 nM.

In the case of `CC(C)(O)C(=O)N1CCC(c2ccc(NC(=O)[C@H]3CCN(c4ccnnc4)C3)cc2)CC1` [Example 141, (3S)—N-{4-[1-(2-hydroxy-2-methylpropanoyl)piperidin-4-yl]phenyl}-1-(pyridazin-4-yl)pyrrolidine-3-carboxamide], half-maximal inhibition (IC50) was put at 834 nM.

Regarding `O=C(Nc1ccc(C2CCN(C(=O)CC3CCCC3)CC2)cc1)[C@H]1CCN(c2ccnnc2)C1` [Example 142, (3S)—N-{4-[1-(cyclopentylacetyl)piperidin-4-yl]phenyl}-1-(pyridazin-4-yl)pyrrolidine-3-carboxamide], the IC50 is 741 nM.

`CC[C@H](C)C(=O)N1CCC(c2ccc(NC(=O)C3CN(c4ccnnc4)C3)cc2)CC1` [Example 143, N-(4-{1-[(2S)-2-methylbutanoyl]piperidin-4-yl}phenyl)-1-(pyridazin-4-yl)azetidine-3-carboxamide] displayed an IC50 of 4.96 nM.

Molecule `O=C(Nc1ccc(C2CCN(C(=O)CC3CCCC3)CC2)cc1)C1CN(c2ccnnc2)C1` [Example 144, N-{4-[1-(cyclopentylacetyl)piperidin-4-yl]phenyl}-1-(pyridazin-4-yl)azetidine-3-carboxamide] registered a half-inhibitory concentration (IC50) of 18.4 nM.

Molecule `O=C(Nc1ccc(C2CCN(C(=O)CC3CCOCC3)CC2)cc1)C1CN(c2ccnnc2)C1` [Example 145, 1-(pyridazin-4-yl)-N-{4-[1-(tetrahydro-2H-pyran-4-ylacetyl)piperidin-4-yl]phenyl}azetidine-3-carboxamide] had an IC50 of 70.9 nM.

Turning to `O=C(Nc1ccc(C2CCN(C(=O)C3CCOCC3)CC2)cc1)C1CN(c2ccnnc2)C1` [Example 146, 1-(pyridazin-4-yl)-N-{4-[1-(tetrahydro-2H-pyran-4-ylcarbonyl)piperidin-4-yl]phenyl}azetidine-3-carboxamide], the IC50 turned out to be 70.7 nM.

In the case of `CC(C)C(=O)N1CCC(c2ccc(NC(=O)C3CN(c4cccnn4)C3)cc2)CC1` [Example 147, N-{4-[1-(2-methylpropanoyl)piperidin-4-yl]phenyl}-1-(pyridazin-3-yl)azetidine-3-carboxamide], the half-inhibitory concentration (IC50) turned out to be 0.95 nM.

In turn, `CC(C)Cn1cc(-c2ccc(NC(=O)C3CN(c4ccnnc4)C3)cc2)cn1` [Example 148, N-{4-[1-(2-methylpropyl)-1H-pyrazol-4-yl]phenyl}-1-(pyridazin-4-yl)azetidine-3-carboxamide] had a 50% inhibitory concentration (IC50) of 76.1 nM.

The molecule `Cc1ncccc1N1CC(C(=O)Nc2ccc(C3CCN(C(=O)c4ccccc4)CC3)cc2)C1` [Example 149, N-[4-(1-benzoylpiperidin-4-yl)phenyl]-1-(2-methylpyridin-3-yl)azetidine-3-carboxamide] showed a half-inhibitory concentration (IC50) of 58 nM.

As for `Cc1ncccc1N1CC(C(=O)Nc2ccc(C3CCN(C(=O)c4ccccc4F)CC3)cc2)C1` [Example 150, N-{4-[1-(2-fluorobenzoyl)piperidin-4-yl]phenyl}-1-(2-methylpyridin-3-yl)azetidine-3-carboxamide], the IC50 was determined as 58.9 nM.

As for `Cc1ncccc1N1CC(C(=O)Nc2ccc(C3CCN(C(=O)c4ccccc4Cl)CC3)cc2)C1` [Example 151, N-{4-[1-(2-chlorobenzoyl)piperidin-4-yl]phenyl}-1-(2-methylpyridin-3-yl)azetidine-3-carboxamide], the half-inhibitory concentration (IC50) was determined as 60.9 nM.

In turn, `Cc1ncccc1N1CC(C(=O)Nc2ccc(C3CCN(C(=O)c4cccc(F)c4)CC3)cc2)C1` [Example 152, N-{4-[1-(3-fluorobenzoyl)piperidin-4-yl]phenyl}-1-(2-methylpyridin-3-yl)azetidine-3-carboxamide] displayed a 50% inhibitory concentration (IC50) of 116 nM.

As for `Cc1ncccc1N1CC(C(=O)Nc2ccc(C3CCN(C(=O)c4cccc(Cl)c4)CC3)cc2)C1` [Example 153, N-{4-[1-(3-chlorobenzoyl)piperidin-4-yl]phenyl}-1-(2-methylpyridin-3-yl)azetidine-3-carboxamide], half-maximal inhibition (IC50) required 699 nM.

Regarding `Cc1ncccc1N1CC(C(=O)Nc2ccc(C3CCN(C(=O)c4cc(Cl)cc(Cl)c4)CC3)cc2)C1` [Example 154, N-{4-[1-(3,5-dichlorobenzoyl)piperidin-4-yl]phenyl}-1-(2-methylpyridin-3-yl)azetidine-3-carboxamide], the 50% inhibitory concentration (IC50) turned out to be 803 nM.

Turning to `Cc1ncccc1N1CC(C(=O)Nc2ccc(C3CCN(C(=O)c4ccc(F)cc4)CC3)cc2)C1` [Example 155, N-{4-[1-(4-fluorobenzoyl)piperidin-4-yl]phenyl}-1-(2-methylpyridin-3-yl)azetidine-3-carboxamide], inhibition was half-maximal at 701 nM (IC50).

Molecule `Cc1ncccc1N1CC(C(=O)Nc2ccc(C3CCN(C(=O)c4ccc(Cl)cc4)CC3)cc2)C1` [Example 156, N-{4-[1-(4-chlorobenzoyl)piperidin-4-yl]phenyl}-1-(2-methylpyridin-3-yl)azetidine-3-carboxamide] showed a half-maximal inhibitory concentration (IC50) of 712 nM.

Turning to `Cc1ncccc1N1CC(C(=O)Nc2ccc(C3CCN(C(=O)c4ccc(C(F)(F)F)cc4)CC3)cc2)C1` [Example 157, 1-(2-methylpyridin-3-yl)-N-(4-{1-[4-(trifluoromethyl)benzoyl]piperidin-4-yl}phenyl)azetidine-3-carboxamide], the IC50 was determined as 948 nM.

`Cc1ncccc1N1CC(C(=O)Nc2ccc(C3CCN(C(=O)c4cccnn4)CC3)cc2)C1` [Example 158, 1-(2-methylpyridin-3-yl)-N-{4-[1-(pyridazin-3-ylcarbonyl)piperidin-4-yl]phenyl}azetidine-3-carboxamide] gave a concentration for half-maximal inhibition (IC50) of 1300 nM.

For `CCCCC(=O)N1CCC(c2ccc(NC(=O)C3CN(c4cccnc4C)C3)cc2)CC1` [Example 159, 1-(2-methylpyridin-3-yl)-N-[4-(1-pentanoylpiperidin-4-yl)phenyl]azetidine-3-carboxamide], the concentration for half-maximal inhibition (IC50) is 182 nM.

In the case of `CCC(C)CC(=O)N1CCC(c2ccc(NC(=O)C3CN(c4cccnc4C)C3)cc2)CC1` (stereo not shown) [Example 160, N-{4-[1-(3-methylpentanoyl)piperidin-4-yl]phenyl}-1-(2-methylpyridin-3-yl)azetidine-3-carboxamide], the IC50 was found to be 173 nM.

Molecule `Cc1ncccc1N1CC(C(=O)Nc2ccc(C3CCN(C(=O)CC4C[C@@H]5CC[C@H]4C5)CC3)cc2)C1` (stereo partly drawn) [Example 161, N-(4-{1-[(1S,4R)-bicyclo[2.2.1]hept-2-ylacetyl]piperidin-4-yl}phenyl)-1-(2-methylpyridin-3-yl)azetidine-3-carboxamide] registered an IC50 of 213 nM.

The molecule `Cc1ncccc1N1CC(C(=O)Nc2ccc(C3CCN(C(=O)CC4CCCC4)CC3)cc2)C1` [Example 162, N-{4-[1-(cyclopentylacetyl)piperidin-4-yl]phenyl}-1-(2-methylpyridin-3-yl)azetidine-3-carboxamide] registered a half-maximal inhibitory concentration (IC50) of 225 nM.

The molecule `Cc1ncccc1N1CC(C(=O)Nc2ccc(C3CCN(C(=O)C4CC4C)CC3)cc2)C1` (stereo not shown) [Example 163, N-(4-{1-[(2-methylcyclopropyl)carbonyl]piperidin-4-yl}phenyl)-1-(2-methylpyridin-3-yl)azetidine-3-carboxamide] yielded a half-maximal inhibitory concentration (IC50) of 120 nM.

With `Cc1ncccc1N1CC(C(=O)Nc2ccc(C3CCN(C(=O)CN4CCOCC4)CC3)cc2)C1` [Example 164, 1-(2-methylpyridin-3-yl)-N-{4-[1-(morpholin-4-ylacetyl)piperidin-4-yl]phenyl}azetidine-3-carboxamide], the midpoint of inhibition, the IC50, lay at 202 nM.

On to `Cc1ncccc1N1CC(C(=O)Nc2ccc(C3CCN(C(=O)c4ccoc4)CC3)cc2)C1` [Example 165, N-{4-[1-(furan-3-ylcarbonyl)piperidin-4-yl]phenyl}-1-(2-methylpyridin-3-yl)azetidine-3-carboxamide], for which the IC50 amounted to 68.2 nM.

Molecule `Cc1ncccc1N1CC(C(=O)Nc2ccc(C3CCN(C(=O)CN4CCCC4)CC3)cc2)C1` [Example 166, 1-(2-methylpyridin-3-yl)-N-{4-[1-(pyrrolidin-1-ylacetyl)piperidin-4-yl]phenyl}azetidine-3-carboxamide] came in with an IC50 of 1070 nM.

`Cc1ncccc1N1CC(C(=O)Nc2ccc(C3CCN(C(=O)[C@H]4CCC(=O)N4)CC3)cc2)C1` [Example 167, 1-(2-methylpyridin-3-yl)-N-{4-[1-(5-oxo D-prolyl)piperidin-4-yl]phenyl}azetidine-3-carboxamide] yielded an IC50 of 6250 nM.

As to `Cc1ncccc1N1CC(C(=O)Nc2ccc(C3CCN(C(=O)CCN(C)C)CC3)cc2)C1` [Example 168, N-{4-[1-(N,N-dimethyl-beta-alanyl)piperidin-4-yl]phenyl}-1-(2-methylpyridin-3-yl)azetidine-3-carboxamide], the half-inhibitory concentration (IC50) is 1010 nM.

`Cc1ncccc1N1CC(C(=O)Nc2ccc(C3CCN(C(=O)c4ccsc4)CC3)cc2)C1` [Example 169, 1-(2-methylpyridin-3-yl)-N-{4-[1-(thiophen-3-ylcarbonyl)piperidin-4-yl]phenyl}azetidine-3-carboxamide] yielded an IC50 of 65.4 nM.

Consider `Cc1ncccc1N1CC(C(=O)Nc2ccc(C3CCN(C(=O)C4(C)CC4)CC3)cc2)C1` [Example 170, N-(4-{1-[(1-methylcyclopropyl)carbonyl]piperidin-4-yl}phenyl)-1-(2-methylpyridin-3-yl)azetidine-3-carboxamide], for which the midpoint of inhibition, the IC50, lay at 65.5 nM.

Consider `Cc1ccsc1C(=O)N1CCC(c2ccc(NC(=O)C3CN(c4cccnc4C)C3)cc2)CC1` [Example 171, 1-(2-methylpyridin-3-yl)-N-(4-{1-[(3-methylthiophen-2-yl)carbonyl]piperidin-4-yl}phenyl)azetidine-3-carboxamide], for which the IC50 was found to be 68.1 nM.

For the molecule `Cc1ncccc1N1CC(C(=O)Nc2ccc(C3CCN(C(=O)CCC(F)(F)F)CC3)cc2)C1` [Example 172, 1-(2-methylpyridin-3-yl)-N-{4-[1-(4,4,4-trifluorobutanoyl)piperidin-4-yl]phenyl}azetidine-3-carboxamide], it took 329 nM to reach half-maximal inhibition (IC50).
